Measured values taken from patent EP4741379A1, “CLASS OF PROGRAMMED CELL DEATH INHIBITORS, PREPARATION METHOD THEREFOR AND USE THEREOF” (SHANGHAI INSTITUTE OF ORGANIC CHEMISTRY, CHINESE ACADEMY OF …, priority 2023, dated 2025).
Where two headings read alike, the source gives them in different places.

Experiments:
L929 cells = experiment: TNF-induced programmed necrosis of L929 cells (Cell Titer-Glo viability); assay type: cell-based, mouse; conditions: for EC50: Mus musculus
Experimental: (§1) The biological test protocol is adopted to test effects of the compound on TNF-induced programmed necrosis of FADD (Fas-associated death domain)-deficient Jurkat cells and L929 cells.
(§2) Two different stimulation methods were used: treating with tumor necrosis factor (TNFα) alone, or treating with TNFα in combination of mitochondrial-derived cysteine-aspartate activator (SMAC) SM164. Cell viability was determined by measuring chemiluminescence values, thereby assessing the bioactivity of the compounds in inhibiting programmed cell necrosis.
(§3) Method: FADD-deficient Jurkat cells: FADD-deficient Jurkat cells (human peripheral blood leukemia T cell line) were cultured in vitro. After reaching logarithmic growth phase, cells were collected and centrifuged at 1000 rpm for 5 minutes. A supernatant was discarded. A cell concentration was adjusted to 2.5×10^5/mL, and cells were seeded into a 384-well plate at 40 µL per well. In the corresponding wells, 5 µL of SM164 (50 nM) and compounds diluted with cell culture medium were added. After pre-treatment at 37°C for 1 hour, 5 µL of TNFα (50 ng/mL) diluted with cell culture medium was added to each well as a stimulation group, while 5 µL of culture medium was added as a control group. After the plate was incubated in a cell culture incubator (37°C, 5% CO2) for 14 hours, 15 µL of Cell Titer-Glo solution was added to each well. Then, the plate was incubated at room temperature for 30 minutes. Luminescence was measured to assess intracellular ATP levels. Cell viability was set at 100% for unstimulated DMSO control wells. […] The plate was placed in a cell culture incubator (37°C, 5% CO2) and cultured for 12 hours. In the corresponding wells, 5 µL of SM164 (500 nM) and compounds diluted with cell culture medium were added. After pre-treatment at 37°C for 1 hour, 5 µL of TNFα (500 ng/mL) diluted with cell culture medium was added to the wells as a stimulation group, while 5 µL of culture medium was added as a control group. After the plate was incubated in the cell incubator (37°C, 5% CO2) for 14 hours, 15 µL of Cell Titer-Glo solution was added to each well. Then, the plate was incubated at room temperature for 30 minutes, and luminescence was measured to assess intracellular ATP levels. Cell viability was set at 100% for unstimulated DMSO control wells. EC50 values of the compounds were calculated using Prism GraphPad statistical software.

[1] = tested on: FADD-deficient Jurkat cells; experiment: TNF-induced programmed necrosis of FADD-deficient Jurkat cells (Cell Titer-Glo viability); assay type: cell-based, human; conditions: for EC50: Homo sapiens, Jurkat; for programmed necroptosis inhibitory activity compared to SAR443122: TNFα alone or TNFα + SM164, human derived FADD-deficient Jurkat cells
Experimental: as §1, §2, §3

mouse derived RIPK1 = molecular target: T1, mouse derived RIPK1 (Mus musculus, UniProt Q60855); experiment: Inhibitory activity against mouse derived RIPK1 (statement only); conditions: in words
T1 sequence (Q60855 1-656): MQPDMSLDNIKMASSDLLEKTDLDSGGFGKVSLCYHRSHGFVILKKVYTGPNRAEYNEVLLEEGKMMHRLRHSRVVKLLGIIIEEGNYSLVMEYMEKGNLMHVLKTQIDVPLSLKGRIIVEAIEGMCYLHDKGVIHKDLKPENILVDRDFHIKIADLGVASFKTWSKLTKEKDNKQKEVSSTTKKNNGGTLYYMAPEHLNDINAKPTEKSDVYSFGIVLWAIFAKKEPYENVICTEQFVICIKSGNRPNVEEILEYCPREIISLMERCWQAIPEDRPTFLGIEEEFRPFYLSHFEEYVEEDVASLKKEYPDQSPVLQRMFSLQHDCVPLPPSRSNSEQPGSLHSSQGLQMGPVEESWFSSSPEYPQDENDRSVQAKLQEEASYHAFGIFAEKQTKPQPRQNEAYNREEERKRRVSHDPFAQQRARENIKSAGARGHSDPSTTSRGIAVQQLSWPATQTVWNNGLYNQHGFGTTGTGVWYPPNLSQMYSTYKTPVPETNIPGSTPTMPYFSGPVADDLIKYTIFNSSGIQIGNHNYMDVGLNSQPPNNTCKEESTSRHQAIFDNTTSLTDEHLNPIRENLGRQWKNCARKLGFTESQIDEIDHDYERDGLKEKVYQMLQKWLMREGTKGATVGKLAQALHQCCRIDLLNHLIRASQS

[2] = L929, stimulation with TNFα + SM164, read-out: EC50 (nM) L929 cells (mouse-derived) TNFα+ SM164
[3] = L929, stimulation with TNFα alone, read-out: EC50 (nM) L929 cells (mouse-derived) TNFα
[4] = stimulation with TNFα + SM164, read-out: EC50 (nM) FADD^-/- Jurkat cells (human-derived) TNFα+ SM164
[5] = stimulation with TNFα alone, read-out: EC50 (nM) FADD^-/- Jurkat cells (human-derived) TNFα
[6] = L929, read-out: EC50 (nM) L929 cells (mouse-derived) TNFα
[7] = read-out: EC50 (nM) FADD^-/- Jurkat cells (human-derived) TNFα

Row | SMILES | EC50 (L929 cells; [2]) | EC50 (L929 cells; [3]) | EC50 [1, 4] | EC50 [1, 5] | EC50 (L929 cells; [6]) | EC50 [1, 7] | programmed necroptosis inhibitory activity compared to SAR443122 [1] | programmed necroptosis inhibitory activity on mouse derived L929 cells (L929 cells; in words) | inhibitory activity against mouse derived RIPK1 (mouse derived RIPK1)
1 | C[C@H](NC(=O)c1nnn(C)c1Cc1ccccc1)c1ccc(C#Cc2cnc(N(C)C)cn2)cc1 [IRCBC-098] | 0.062 nM | 0.011 nM | 0.004 nM |  |  |  |  |  | 
2 | C[C@H](NC(=O)c1nnn(C)c1Cc1ccccc1)c1ccc(C#Cc2cccc(N(C)C)n2)cc1 [IRCBC-099] | 0.734 nM | 0.399 nM | 3.46 nM | 0.195 nM |  |  |  |  | 
3 | C[C@H](NC(=O)c1nnn(C)c1Cc1ccccc1)c1ccc(C#Cc2ccnc(N(C)C)n2)cc1 [IRCBC-100] | 1.21 nM | 0.561 nM | 1.79 nM | 0.084 nM |  |  |  |  | 
4 | C[C@H](NC(=O)c1nnn(C)c1Cc1ccccc1)c1ccc(C#Cc2ccnc(N(C)C)c2)cc1 [IRCBC-101] | 2.1 nM | 0.405 nM | 0.582 nM | 0.036 nM |  |  |  |  | 
5 | C[C@H](NC(=O)c1nnn(C)c1Cc1ccccc1)c1ccc(C#Cc2ccc(N3CCC3)cn2)cc1 [IRCBC-103] | 0.104 nM | 0.044 nM | 0.001 nM |  |  |  |  |  | 
6 | C[C@H](NC(=O)c1nnn(C)c1Cc1ccccc1)c1ccc(C#Cc2ccc(N3CCCC3)cn2)cc1 [IRCBC-104] | 0.12 nM | 0.071 nM | 0.002 nM |  |  |  |  |  | 
7 | C[C@H](NC(=O)c1nnn(C)c1Cc1ccccc1)c1ccc(C#Cc2csc(N(C)C)n2)cc1 [IRCBC-106] | 0.3 nM | 0.139 nM | 0.256 nM | 0.004 nM |  |  |  |  | 
8 | C[C@H](NC(=O)c1nnn(C)c1Cc1ccccc1)c1ccc(C#Cc2cnc(N(C)C)nc2)cc1 [IRCBC-119] | 70.9 nM | 20.9 nM | 5.79 nM | 0.164 nM |  |  |  |  | 
9 | C[C@H](NC(=O)c1nnn(C)c1Cc1ccccc1)c1ccc(C#Cc2ccc(C(C)(C)O)cn2)cc1 [IRCBC-120] | 1.74 nM | 0.438 nM | 0.079 nM | 0.002 nM |  |  |  |  | 
10 | C[C@H](NC(=O)c1nnn(C)c1Cc1ccccc1)c1ccc(C#Cc2ncccc2C#N)cc1 [IRCBC-121] | 0.069 nM | 0.012 nM | 0.01 nM |  |  |  |  |  | 
11 | C[C@H](NC(=O)c1nnn(C)c1Cc1ccccc1)c1ccc(C#Cc2ncccc2F)cc1 [IRCBC-122] | 0.032 nM | 0.026 nM | 0.035 nM |  |  |  |  |  | 
12 | COc1cccnc1C#Cc1ccc([C@H](C)NC(=O)c2nnn(C)c2Cc2ccccc2)cc1 [IRCBC-123] | 1.05 nM | 0.246 nM | 0.004 nM |  |  |  |  |  | 
13 | C[C@H](NC(=O)c1nnn(C)c1Cc1ccccc1)c1ccc(C#Cc2ncccc2N(C)C)cc1 [IRCBC-124] | 5.87 nM | 1.93 nM | 0.034 nM |  |  |  |  |  | 
14 | C[C@H](NC(=O)c1nnn(C)c1Cc1ccccc1)c1ccc(C#Cc2cc(N(C)C)ccn2)cc1 [IRCBC-125] | 1.68 nM | 0.445 nM | 0.145 nM | 0.01 nM |  |  |  |  | 
15 | C[C@H](NC(=O)c1nnn(C)c1Cc1ccccc1)c1ccc(C#Cc2cnc3cccnn23)cc1 [IRCBC-131] | 8.75 nM | 2.05 nM | 0.16 nM | 0.003 nM |  |  |  |  | 
16 | CCN1CCN(c2ccc(C#Cc3ccc([C@H](C)NC(=O)c4nnn(C)c4Cc4ccccc4)cc3)nc2)CC1 [IRCBC-134] | 0.005 nM | 0.001 nM | 0.002 nM |  |  |  |  |  | 

Row | SMILES | EC50 (L929 cells; [2]) | EC50 (L929 cells; [3]) | EC50 [1, 4] | EC50 [1, 5] | EC50 (L929 cells; [6]) | EC50 [1, 7] | programmed necroptosis inhibitory activity compared to SAR443122 [1] | programmed necroptosis inhibitory activity on mouse derived L929 cells (L929 cells; in words) | inhibitory activity against mouse derived RIPK1 (mouse derived RIPK1)
17 | CNc1cnc(C#Cc2ccc([C@H](C)NC(=O)c3nnn(C)c3Cc3ccccc3)cc2)cn1 [IRCBC-145] | 0.127 nM | 0.063 nM | 0.007 nM |  |  |  |  |  | 
18 | CC(=O)Nc1ccc(C#Cc2ccc([C@H](C)NC(=O)c3nnn(C)c3Cc3ccccc3)cc2)nc1 [IRCBC-149] | 0.066 nM | 0.045 nM | 0.003 nM |  |  |  |  |  | 
19 | CC(C)N1CCN(c2ccc(C#Cc3ccc([C@H](C)NC(=O)c4nnn(C)c4Cc4ccccc4)cc3)nc2)CC1 [IRCBC-159] | 0.006 nM | 0.003 nM | 0.002 nM |  |  |  |  |  | 
20 | C[C@H](NC(=O)c1nnn(C)c1Cc1ccccc1)c1ccc(C#Cc2ncc(NC3CC3)cn2)cc1 [IRCBC-271] | 0.00618 nM |  | 0.0111 nM |  |  |  |  |  | 
21 | CN1C(=O)N[C@H](Cc2c[nH]c3c(Cl)cccc23)C1=O [Nec-1s, reference compound] |  |  |  |  | 443 nM | 228 nM |  |  | 
22 | C[C@H](NC(=O)c1nnn(C)c1Cc1ccccc1)c1ccc(C#Cc2cccnc2)cc1 [QY-18-25] | 1.2 nM | 0.3 nM | 0.02 nM | < 0.01 nM |  |  |  |  | 
23 | C[C@H](NC(=O)c1nnn(C)c1Cc1ccccc1)c1ccc(C#Cc2ccncc2)cc1 [QY-18-27] | 0.06 nM | 0.04 nM | 0.01 nM | < 0.01 nM |  |  | stronger |  | 
24 | C[C@H](NC(=O)c1nnn(C)c1Cc1ccccc1)c1ccc(C#Cc2cnn(C)c2)cc1 [QY-18-43] | 0.08 nM | 0.05 nM | 0.06 nM | 0.02 nM |  |  |  |  | 
25 | C[C@H](NC(=O)c1nnn(C)c1Cc1ccccc1)c1ccc(C#CC2CCOCC2)cc1 [QY-18-44] | 0.3 nM | 0.2 nM | 0.3 nM | 0.04 nM |  |  |  |  | 
26 | C[C@H](NC(=O)c1nnn(C)c1Cc1ccccc1)c1ccc(C#CC2CC2)cc1 [QY-18-47] | 73 nM | 1 nM | 61 nM | 0.7 nM |  |  |  |  | 
27 | C[C@H](NC(=O)c1nnn(C)c1Cc1ccccc1)c1ccc(C#Cc2cnoc2)cc1 [QY-18-77] |  | 733 nM | 32 nM | 0.3 nM |  |  |  |  | 
28 | C[C@H](NC(=O)c1cnn(C)c1Cc1ccccc1)c1ccc(C#Cc2ccccn2)cc1 [QY-20-2] | 0.5 nM | 0.1 nM | 0.3 nM | 0.03 nM |  |  |  |  | 
29 | C[C@H](NC(=O)c1nnn(C)c1Cc1ccc(F)cc1)c1ccc(C#Cc2ccccn2)cc1 [QY-20-53] | 0.1 nM | 0.03 nM | 0.05 nM | < 0.01 nM |  |  | stronger |  | 
30 | C[C@H](NC(=O)c1nnn(C)c1Cc1cccc(F)c1)c1ccc(C#Cc2ccccn2)cc1 [QY-20-54] | 0.3 nM | 0.05 nM | < 0.01 nM | < 0.01 nM |  |  | stronger |  | 
31 | C[C@H](NC(=O)c1nnn(C)c1Cc1ccccc1)c1ccc(C#Cc2cncn2C)cc1 [QY-20-55] | 23 nM | 2.2 nM | 1.4 nM | 0.1 nM |  |  |  |  | 
32 | CN1C(=O)[C@@H](NC(=O)c2nnc(Cc3ccccc3)[nH]2)COc2cccnc21 [SAR443122, reference compound] |  |  |  |  | > 1000 nM | 0.9 nM |  | nearly inactive | very poor inhibitory activity
